From patent US20240269220A1, “USES OF BLETILLA FORMOSANA EXTRACT FOR THE TREATMENT OF DISEASES ASSOCIATED WITH DYSREGULATED ACTIVATION OF NEUTROPHILS” (Chang Gung University, priority 2022, published 2024)

Legend:
[1] = system: fMLF/CB-activated human neutrophils; assay: Extracellular superoxide anion production (ferricytochrome c reduction) in fMLF/CB-activated human neutrophils; assay type: cell-based; details: Neutrophil, chemical components of the extract, read-out: Superoxide anions IC50
Procedure: (§1) The study was conducted with the approval of the Institutional Review Board of Chang Gung Memorial Hospital in accordance with the Declaration of Helsinki. After written informed consent was obtained, whole blood samples were drawn from healthy individuals aged 20-30 years who had not taken any medication within the previous 5 weeks. Neutrophils were then isolated using the standard procedures for dextran sedimentation, Ficoll-Hypaque gradient centrifugation, and hypotonic lysis of erythrocytes. The isolated neutrophils were then suspended in Ca^2+-free HBSS (pH 7.4) and stored at 4° C. until use.
Extracellular superoxide anion production in activated neutrophils was assessed through the reduction of ferricytochrome c. After incubating them with Ca^2+(1 mM) and ferricytochrome c (0.6 mg/mL) at 37° C., the isolated human neutrophils (6×10^5 cells/mL) were then incubated with DMSO or the present B. formosana extract for 5 min. The cells were pretreated with cytochalasin B (CB, 1 or 2 μg/mL) for 3 min and stimulated with fMLF. The change in absorbance at 550 nm was detected continuously using a spectrophotometer (U-3010, Hitachi, Tokyo, Japan), and superoxide anion levels were calculated using a method described previously (Hwang et al., 2003 Mol. Pharmacol. 64(6), 1419-1427).

[2] = system: fMLF/CB-activated human neutrophils; assay: Neutrophil elastase release in fMLF/CB-activated human neutrophils; assay type: cell-based; details: chemical components of the extract
Procedure: as §1
Human neutrophils (6×10^5 cells/mL) were incubated with DMSO or the present B. formosana extract after treatment with 1 mM CaCl2 and 100 μM NE substrate (Methoxysuccinyl-Ala-Ala-Pro-Val-p-nitroanilide) at 37° C. for 5 min. Cells were stimulated with fMLF (0.1 μM)/cytochalasin B (CB) (0.5 μg/mL) for 10 min before determination of NE release by measuring the change of absorbance at 405 nm in a spectrophotometer.

| SMILES | IC50 [1] | IC50 [2] |
| --- | --- | --- |
| COc1cccc(CCc2cc(O)cc(OC)c2)c1 [BF8-4-2, 3′,5-dimethoxy-3-hydroxybibenzyl] | 4.63 ± 0.54 µM | > 10 µM |
| COc1cc(O)cc(CCc2ccccc2)c1 [BF8-4-4, 3-hydroxy-5-methoxybibenzyl] | 1.86 ± 0.21 µM | 2.71 ± 0.16 µM |
| COc1cc(CCc2cccc(O)c2)cc(OC)c1 [BF8-4-3, 3,5-dimethoxy-3′-hydroxybibenzyl] | 4.64 ± 0.23 µM | 7.41 ± 0.5 µM |

Further lines, results first:

| IC50 [1] | IC50 [2] | SMILES |
| --- | --- | --- |
| 0.66 ± 0.12 µM | 6.26 ± 1.19 µM | COc1cc(O)c(Cc2ccc(O)cc2)c2c1-c1ccc(O)cc1CC2 [Orchidble, 9,10-dihydro-1-[(4-hydroxyphenyl)methyl]-4-methoxy-2,7-phenanthrenediol] |
| 4.3 ± 0.5 µM | > 10 µM | COc1cc(O)cc(CCc2cccc(O)c2)c1 [Batatasin III, 3,3′-dihydroxy-5-methoxybibenzyl] |
